Experimental data from patent US20260248734A1, “COMPOSITIONS AND METHODS FOR TREATING METABOLIC DISEASES/DISORDERS” (priority 2023, published 2026).

B1: CO3A1: Collagen 3A1 recombinant protein (R&D Systems) coated on culture plates (protein, UniProt P02461 154-1221, looked up)
Collagen alpha-1(III) chain: QYDSYDVKSGVAVGGLAGYPGPAGPPGPPGPPGTSGHPGSPGSPGYQGPPGEPGQAGPSGPPGPPGAIGPSGPAGKDGESGRPGRPGERGLPGPPGIKGPAGIPGFPGMKGHRGFDGRNGEKGETGAPGLKGENGLPGENGAPGPMGPRGAPGERGRPGLPGAAGARGNDGARGSDGQPGPPGPPGTAGFPGSPGAKGEVGPAGSPGSNGAPGQRGEPGPQGHAGAQGPPGPPGINGSPGGKGEMGPAGIPGAPGLMGARGPPGPAGANGAPGLRGGAGEPGKNGAKGEPGPRGERGEAGIPGVPGAKGEDGKDGSPGEPGANGLPGAAGERGAPGFRGPAGPNGIPGEKGPAGERGAPGPAGPRGAAGEPGRDGVPGGPGMRGMPGSPGGPGSDGKPGPPGSQGESGRPGPPGPSGPRGQPGVMGFPGPKGNDGAPGKNGERGGPGGPGPQGPPGKNGETGPQGPPGPTGPGGDKGDTGPPGPQGLQGLPGTGGPPGENGKPGEPGPKGDAGAPGAPGGKGDAGAPGERGPPGLAGAPGLRGGAGPPGPEGGKGAAGPPGPPGAAGTPGLQGMPGERGGLGSPGPKGDKGEPGGPGADGVPGKDGPRGPTGPIGPPGPAGQPGDKGEGGAPGLPGIAGPRGSPGERGETGPPGPAGFPGAPGQNGEPGGKGERGAPGEKGEGGPPGVAGPPGGSGPAGPPGPQGVKGERGSPGGPGAAGFPGARGLPGPPGSNGNPGPPGPSGSPGKDGPPGPAGNTGAPGSPGVSGPKGDAGQPGEKGSPGAQGPPGAPGPLGIAGITGARGLAGPPGMPGPRGSPGPQGVKGESGKPGANGLSGERGPPGPQGLPGLAGTAGEPGRDGNPGSDGLPGRDGSPGGKGDRGENGSPGAPGAPGHPGPPGPVGPAGKSGDRGESGPAGPAGAPGPAGSRGAPGPQGPRGDKGETGERGAAGIKGHRGFPGNPGAPGSPGPAGQQGAIGSPGPAGPRGPVGPSGPPGKDGTSGHPGPIGPPGPRGNRGERGSEGSPGHPGQPGPPGPPGAPGPCCGGVGAAAIAGIGGEKAGGFAPYYG

How the values were obtained:
[1] = test system: differentiated human adipocytes; test: Thermogenic gene expression in human adipocytes in vitro by real-time PCR; format: cell-based
Description: RNA from iWAT tissue and cells was isolated and purified using a Qiagen Rneasy Mini Kit (Valencia, CA) according to manufacturer guidelines. mRNA concentrations were measured using a Take3 Micro-Volume Plate (BioTek, Winooski, VT), then normalized to 150 ng of mRNA for conversion to cDNA. cDNA was synthetized using random hexamer primers and an iScript cDNA-synthesis kit (Biorad). The quantitative RT-PCR reactions were performed using the So Advanced™ Universal SYBER Green Supermix kit (Biorad) in a CFX96 Touch Real-Time PCR Detection System (BioRad, Hercules, CA). Fold expression levels were calculated using the […]. Transcript levels were normalized to 18S ribosomal RNA levels in all experiments. Primer (Table 1) specificity was tested by assessing the melting curve.

[2] = test system: adipose derived stem cells (ASCs) isolated from WT SubQ WAT; test: Beige differentiation of ASCs on ECM protein coated surfaces, beige marker expression by RT-PCR; format: cell-based, mice; conditions: for reduction in UCP1 relative to uncoated surfaces: ASCs beige-differentiated on coated surface; for COX7A1 expression: differentiated cells on coated surface
Description: Immunohistochemistry. SubQ fat was harvested from animals using sterile techniques, cut into small pieces and fixed in 4% paraformaldehyde for 24 hours at 4 degrees. Tissue pieces were then washed with phosphate buffered saline (PBS), permeabilized with 0.5% triton in PBS and blocked with 10% donkey serum; followed by incubation with either 1) ITA7 antibody (1:100, Novus Biologics NBP1-86,118) and Griffonia simplicifolia isolectin conjugated with Rhodamine to labels endothelial cells, or 2) ITA7 antibody and CD68 antibody (1:100, Santa Cruz sc-70761) to label macrophages for 48 hours at 4 degrees. After washes (3×15 minutes), the tissues were incubated with second antibodies (Alexa Fluor 647 Donkey Anti-Rabbit IgG and/or TRITC Goat Anti-Mouse, IgG), BODIPY to stain lipid droplets and DAPI to stain the nuclei, for 2 hours at room temperature. Confocal imaging. A confocal laser-scanning microscope was used to image samples (Leica TCS SP8 Confocal Microscope; Buffalo Grove, IL). Adipocytes labeled by BODIPY and ITA7 labeled by Alexa Fluor 647 were imaged simultaneously in two channels, with Rhodamine-labeled endothelial tissue or TRITC CD68-labeled macrophages, and DAPI nuclei imaged in series. Confocal image stacks were obtained with a 63×oil immersion lens (NA 1.4). Laser intensity, confocal aperture, and photomultiplier gain were kept constant across samples. Image processing and analysis: Confocal image stacks were processed and analyzed using Leica LASX software version 3.5.2 (Wetzlar, Germany). The Alexa 647 and Rhodamine channels were thresholded and the intersection between both layers was quantified in order to characterize the colocalization between ITA7 and endothelial cells. In separate tissue, the colocalization between ITA7 and CD68 positive cells was also quantified. Using 3D images, the Alexa 647, Rhodamine or TRITC and intersection area per cell were calculated. cytoNet image analysis: cytoNet is a software accessible over the web that quantifies the spatial relationships in cell communities using principles of graph theory and evaluates the effect of cell-cell interactions on individual cell phenotypes (https://www.braininitiative.org/toolmakers/resources/cytonet/). Image files were segmented manually and provided as input to cytoNet. Because blood vessels have noncircular shapes, the minimum distance between object perimeters was computed in order to define graph edges. The resulting cell-to-cell perimeter distance and cells characteristics were analyzed in WT and KO SubQ WAT images. RNA isolation and quantitative RT-PCR. RNA from tissue and cells was isolated and purified using a Qiagen RNeasy Mini Kit (Valencia, CA) according to manufacturer guidelines. mRNA concentrations were measured using a Take3 Micro-Volume Plate (BioTek. Winooski, VT), then normalized to 150 ng of mRNA for conversion to cDNA. cDNA was synthetized using random hexamer primers and an iScript cDNA-synthesis kit (Biorad). The quantitative RT-PCR reactions were performed using the So Advanced™ Universal SYBER Green Supermix kit (Biorad) in a CFX96 Touch Real-Time PCR Detection System (BioRad, Hercules. CA). Fold expression levels were calculated using the 2^ΔΔCt method. Transcript levels were normalized to 18S ribosomal RNA levels in all experiments that used mice cells (FIGS. 3, 4, 7), or the GAPDH reference gene in experiments with human cells (FIG. 6). Primer (Table 1) specificity was tested by the assessing the melting curve. Western blot analysis. Cells were lysed using CelLytic (Sigma, St. Louis, MO) and tissue was lysed using RIPA buffer (EMD Millipore, Billerica, MA) and protease inhibitor cocktail (Fischer Scientific, Waltham, MA). Protein concentration was determined using the Bio-Rad DC protein assay (Bio-Rad Laboratories, Hercules. CA). […]

ASCs = test: Hydrogen peroxide (ROS-Glo H2O2) assay of ASCs differentiated on coated surfaces; format: cell-based, mice; conditions: compared to uncoated surface

| Molecule | peak of efficacy on browning after administration [1] | increase in Cox7A1 gene expression ([1]; 6 h of treatment) [fold] | increase in UCP1 gene expression ([1]; 6 h of treatment) | reduction in UCP1 relative to uncoated surfaces [2] [%] | PGC1A levels ([2]; compared to uncoated surfaces) | COX7A1 expression [2] | ROS levels (ASCs) |
| --- | --- | --- | --- | --- | --- | --- | --- |
| C=C[C@@]1(C)CC(=O)[C@]2(O)[C@@]3(C)[C@@H](O)CCC(C)(C)[C@@H]3[C@H](O)[C@H](OC(C)=O)[C@@]2(C)O1 [FSK, (13R)-1α,6β,9α-Trihydroxy-11-oxo-8α,13-epoxylabd-14-en-7β-yl acetate] | ~ 6 h | 1.5 | ~ 5 fold | – | – | – | – |
| CO1A1: Collagen 1A1 recombinant protein (R&D Systems) coated on culture plates | – | – | – | 71.7 | significant decrease | significant decrease | – |
| LAMA4: Laminin α4 recombinant protein (R&D Systems) coated on culture plates | – | – | – | 51.4 | – | significant decrease | higher ROS levels |
| B1 | – | – | – | 91.16 | – | significant decrease | – |
